# Data from patent publication US8834549B2, “One-step phosphorylcholine-linked polymer coating and drug loading of stent” (Abbott Laboratories, priority 2007, dated 2014).
# Experiment: Total drug level on stents after ETO cycles by extraction and HPLC
# Format: physicochemical
# Settings: 5 stents with 1 ETO cycle, 5 stents with 3 ETO cycles
# Method: Weighed 129 mg of ABT-578, a rapamycin derivative and 280 mg of phosphorylcholine-linked methacrylate terpolymer PC1036 and dissolved them in 10 ml of […] by shaking overnight protected from light. The solution was filtered through a 0.45 micron Teflon filter and the solution was added to the syringe reservoir of a semi-automated spray atomization gun coupled to a lathe-like device designed to hold stents, rotate them and translate them linearly in front of the spray gun. The equipment was programmed to spray enough solution in order to obtain about 10 micrograms of drug per linear mm of stent length, taking into account the losses of solution due to lack of contact with the stent as it is sprayed. After spraying, the stents were allowed to dry in air, followed by packaging them individually in glass vials sealed with an ETO permeable Tyvec membrane. The samples were sent out for ETO sterilization by one or three complete cycles.
# Analysis was done of the total drug level from 5 stents that underwent 1 ETO cycle and 5 stents that underwent 3 ETO cycles using standard extraction and HPLC analysis.
smiles,measurement,value
CO[C@H]1C[C@@H]2CC[C@@H](C)[C@@](O)(O2)C(=O)C(=O)N2CCCC[C@H]2C(=O)O[C@H]([C@H](C)C[C@@H]2CC[C@H](n3cnnn3)[C@H](OC)C2)CC(=O)[C@H](C)/C=C(\C)[C@@H](O)[C@@H](OC)C(=O)[C@H](C)C[C@H](C)/C=C/C=C/C=C/1C [ABT-578],"stability of drug on stent to ETO cycles (total drug level, 3 cycles vs 1 cycle)",stable to 3 ETO cycles
